Assay results: patent US20040203117A1, “Method of expressing genetically modified protein carrying sugar chain having sialic acid added thereto in insect cells” (priority 2001, published 2004)

Key:
TN5 cells = settings: 2-ADN added in a concentration of 5 mM
Protocol: TN5 cells were cultured in EX-CELL401 medium (manufactured by JRH Bioscience) containing 0 to 5 mM of 2-acetamide-1,2-dideoxynojirimycin (2-ADN) (Tront Research Chemicals Inc.) at 28° C. for 3 days. Subsequently, TN5 (TN5B1-4) cells were infected with the recombinant baculovirus prepared as described above at an moi of 1.0 and subjected to a further culturing in EX-CELL401 medium (manufactured by JRH Bioscience) at 28° C. for 3 days. Thereafter, the supernatant containing recombinant boIFN-τ (rboIFN-τ) was recovered.

[1] = test system: N-acetylglucosaminidase (GlcNAcase) of TN5 cells; assay: GlcNAcase inhibition assay of TN5 cells (p-nitrophenol release from p-nitrophenyl β-D-acetylglucosamide); type: biochemical, insect (TN5 cells)
Protocol: The GlcNAcase inhibition assay of TN5 cells was performed as follows.
TN5 cells (2.0×10^7 cells) were washed once with PBS and rinsed with 1 ml of PBS containing 1% Triton-X 100. After centrifugation at 1,000×g for 5 minutes, the supernatant was used as an enzyme source. Fifty μl of the supernatant was mixed with 50 μl of 2-ADN to make a final 2-ADN concentration of 0 to 5 mM. To the solution mixture, 200 μl of a substrate solution (1 mg/ml p-nitrophenyl β-D-acetylglucosamide in 0.2 M citrate/phosphate buffer) was added. The resultant solution was incubated at 37° C. for one hour. The reaction was quenched by adding 1 M Na2CO3, the absorption of released p-nitrophenol was measured at 420 nm. […] Lanes 1 to 6 in the figures show the results obtained at addition amounts of 2-ADN, 0, 0.05, 0.5, 1, 2 and 5 mM, respectively.

[2] = test system: α-2,6-linked sialylation of recombinant boIFN-τ in TN5 cells; assay: Lectin blot analysis (HRP-SNA) of sialic acid in recombinant boIFN-τ expressed by TN5 cells; type: cell-based, insect (TN5 cells); settings: 2-ADN 0, 0.05, 0.5, 1, 2 and 5 mM; total amount of protein of each lane the same
Protocol: After TN5 cells were infected with a recombinant baculovirus, they were cultured for 3 days. The supernatant was subjected to Tricine SDS-PAGE performed under reducing conditions (600 ng protein per lane). After the separated protein was transferred on a PVDF membrane, and blocked with PBS containing 1% BSA at 4° C. overnight, the protein was washed with 200 mM Tris-buffered saline (TBS) containing 0.05% Tween 20, and then reacted with 5 μg/ml Sambucus nigra agglutinin labeled with horseradish peroxidase (HRP-SNA, manufactured by EY laboratory) at room temperature for one hour. The carbohydrate reacted was visualized by a Renaissance Western Blot Chemiluminescence Kit (Manufactured by NEN).
To investigate whether or not a sialylated recombinant glycoprotein is produced in insect cells where the GlcNAcase activity is inhibited, the terminal structure of N-glycan of recombinant boIFN-τ was determined by a lectin blot analysis using SNA, which is a lectin capable of recognizing α-2,6-linked sialic acid.

[3] = test system: N-glycosylation of recombinant boIFN-τ in TN5 cells; assay: SDS-PAGE and Western blot of recombinant boIFN-τ from TN5 cells cultured with tunicamycin; type: cell-based, insect (TN5 cells); settings: 1 μg/ml tunicamycin, 3 days; only the 19.5 kD molecule observed
Protocol: The addition of a sugar chain to a recombinant protein, that is, N-glycosylation, was inhibited by culturing the TN5 cells infected with a recombinant baculovirus in a medium containing 1 μg/ml tunicamycin (manufactured by Sigma Chemical Co.) for 3 days.
Twenty μl of the culture supernatant of TN5 cells cultured for 3 days after infection with a recombinant baculovirus was subjected as a sample to Tricine SDS-PAGE performed under reducing conditions in accordance with a method described in Schagger, H. et al., Anal. Biochem. 166, 368-379 (1987). After electrophoresis, the separated protein was stained with Coomassie brilliant blue (CBB)G-250 or blotted on a polyvinylidene difluoride (PDFV) membrane (manufactured by Millipore Corporation). The protein-transferred membrane was blocked with PBS containing 5% skim milk at 4° C. overnight and allowed to react with a 0.2 μg/ml anti-boIFN-τ monoclonal antibody (manufactured by Katakura Industries) at room temperature for one hour, and further incubated with 2000-fold-diluted HPR-rabbit anti-mouse IgG at room temperature. The antibody bound to the protein was visualized by 3,3′-diaminobenzidine staining. The densities of bands obtained after the CBB staining and Western blotting were quantified by using a densitometer.

**Q.** Which results are given for `CC(=O)N[C@H]1CN[C@H](CO)[C@@H](O)[C@@H]1O` [2-ADN, 2-acetoamide-1,2-dideoxynojirimycin]?
**A.** proliferation of cells (TN5 cells): not affected; GlcNAcase activity, dependence on concentration ([1]; 0 to 5 mM 2-ADN): inhibited by 2-ADN in a concentration-dependent manner; GlcNAcase activity inhibited ([1]; 5 mM 2-ADN, TN5 cell lysate supernatant, 37° C., one hour): About 80%; SNA-reactive band intensity (sialic acid in recombinant boIFN-τ) [2]: increased by adding 2-ADN in a concentration dependent manner

**Q.** With tunicamycin as the compound, how does the “N-glycosylation of recombinant boIFN-τ” value [3] read?
**A.** blocked
